Read-outs that look alike come from different tables or passages of the source. *1 amine or outer side, *2 acyl side, *3 side chain or, on linkers, in order; H or OH if unused. Where a SMILES comes first, the peptide text is derived from it. Bridges are numbered along the chain shown (N, C = ends). [ ]: non-standard residue; d: D form. NMehTyr = CN[C@@H](CCc1ccc(O)cc1)C(=O)O; hPhe = N[C@@H](CCc1ccccc1)C(=O)O; CO = O=C([*:1])[*:2]

Experiment [1] deals with chymotrypsin (Bos taurus, UniProt P00766). In words: Protease inhibition assay: chymotrypsin. The conditions noted are these: for inhibition of chymotrypsin, in words: discussion of Table 5. The format is biochemical. As for the experimental part:
(§1) Optical rotation values were obtained on a Jasco P-1010 polarimeter at the sodium D line (589 nm; concentrations are reported in g/100 mL. UV spectra were recorded on an Agilent 8453 spectrophotometer (Santa Clara, California, CA, USA). IR spectra were recorded on a Bruker Tensor 27 FT-IR instrument (Billerica, Massachusetts, MA, USA). NMR spectra were recorded on a Bruker DRX-500 spectrometer at 500.13 MHz for ^1H and 125.76 MHz for ^13C and a Bruker Avance 400 Spectrometer at 400.13 MHz for ^1H, 100.62 MHz for ^13C (Billerica, Massachusetts, MA, USA). DEPT, COSY-45, gTOCSY, gROESY, gHSQC, gHMQC and gHMBC spectra were recorded using standard Bruker pulse sequences. Mass spectra and MS/MS analyses were recorded on a Waters MaldiSynapt instrument (Milford, Massachusetts, MA, USA). HPLC separations were performed on a Jasco HPLC system (Halifax, Nova-Scotia, NS, Canada) (Model PU-2080-plus pump, Model LG-2080-04 Quaternary gradient unit and Model MD-2010-plus Multi-wavelength detector). An Elisa ELx808 reader (Bio-Tek Instruments, Inc (Winooski, VT, USA)) was used for protease inhibition assays.
(§2) The procedures used to determine the inhibitory activity of the new compounds on trypsin and chymotrypsin were described in a previous paper. The range of concentrations used in the assays was between 45.5 μM and 0.011 μM.

The target of experiment [2] is T1, trypsin (Bos taurus, UniProt P00760).
T1 sequence (P00760 24-246): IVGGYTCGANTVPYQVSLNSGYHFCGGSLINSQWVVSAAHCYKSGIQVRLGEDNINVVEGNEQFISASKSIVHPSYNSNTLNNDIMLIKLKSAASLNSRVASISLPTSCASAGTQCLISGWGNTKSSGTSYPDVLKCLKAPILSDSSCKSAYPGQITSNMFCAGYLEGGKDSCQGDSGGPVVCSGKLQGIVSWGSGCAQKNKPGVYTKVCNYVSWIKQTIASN
Also noted: method as in PMID 22280481. The conditions noted are these: read-out: IC50 (against trypsin); cited from earlier work.

Experiment [3] addresses T1, trypsin. Nature of the experiment: Protease inhibition assay: trypsin. The conditions noted are these: discussion of Table 5. It is filed as biochemical. As for the experimental part: as §1, §2

Broadly, the IC50 is the point on the concentration scale where inhibition reaches its midpoint. `CC[C@H](C)[C@@H]1NC(=O)[C@H](Cc2ccccc2)N(C)C(=O)[C@H](C(C)C)N2C(=O)[C@H](CC[C@H]2O)NC(=O)[C@H](C[C@H]2C=C[C@H](O)CC2)NC(=O)[C@@H](NC(=O)[C@H](CCC(N)=O)NC(=O)[C@H](O)Cc2ccc(O)cc2)[C@@H](C)OC1=O` [Micropeptin KB1046 (13), Micropeptin KB1046]: in experiment [1], the IC50 was determined as 0.22 µM and the “inhibition of chymotrypsin, in words” value is “inhibition of chymotrypsin”.

As to `CCCC(=O)N[C@@H](CC(=O)OC)C(=O)N[C@@H]1C(=O)N[C@@H](CCCNC(=N)N)C(=O)N[C@H]2CC[C@@H](OC)N(C2=O)[C@@H](C(C)C)C(=O)N(C)[C@@H](Cc2ccccc2)C(=O)N[C@@H]([C@@H](C)CC)C(=O)O[C@@H]1C` [Micropeptin KB956 (6), Micropeptin KB956], in experiment [1], the IC50 is over 45.5 µM.

`CCCCCC(=O)N[C@@H](CC(=O)O)C(=O)N[C@@H]1C(=O)N[C@@H](CCCNC(=N)N)C(=O)N[C@H]2CC[C@@H](OC)N(C2=O)[C@@H](C(C)C)C(=O)N(C)[C@@H](Cc2ccccc2)C(=O)N[C@@H]([C@@H](C)CC)C(=O)O[C@@H]1C` [Micropeptin KB970B (8), Micropeptin KB970B] showed an IC50 in experiment [1] of over 45.5 µM.

In turn, `CCCCCC(=O)N[C@@H](CC(=O)OC)C(=O)N[C@@H]1C(=O)N[C@@H](CCCNC(=N)N)C(=O)N[C@H]2CC[C@@H](OC)N(C2=O)[C@@H](C(C)C)C(=O)N(C)[C@@H](Cc2ccccc2)C(=O)N[C@@H]([C@@H](C)CC)C(=O)O[C@@H]1C` [Micropeptin KB984 (9), Micropeptin KB984] registered a half-inhibitory concentration (IC50) in experiment [1] of over 45.5 µM.

In turn, `CC(C)C[C@@H]1NC(=O)[C@@H]2CCCN2C(=O)[C@H](C)NC(=O)[C@H](CCC(N)=O)NC(=O)[C@H](C)NC(=O)[C@H](Cc2ccccc2)NC(=O)[C@H](Cc2ccccc2)NC(=O)[C@H](Cc2ccccc2)NC1=O` [Microphycin KB921 (2), Microphycin KB921] (cyclo(APLFFFAQ)) returned an IC50 in experiment [1] of over 45.5 µM.

For `CCCCCC(=O)N[C@@H](CC(=O)OC)C(=O)N[C@@H]1C(=O)N[C@@H](CCCNC(=N)N)C(=O)N[C@H]2CC[C@@H](OC)N(C2=O)[C@@H]([C@@H](C)CC)C(=O)N(C)[C@@H](Cc2ccc(O)c(Cl)c2)C(=O)N[C@@H]([C@H](C)CC)C(=O)O[C@@H]1C` [Micropeptin KB1048 (11), Micropeptin KB1048], in experiment [1], the midpoint of inhibition, the IC50, lay at 0.63 µM and the “inhibition of chymotrypsin, in words” value is “inhibition of chymotrypsin”.

For the molecule `NC(N)=NCCCCNC(=O)[C@H]1C[C@H]2CC[C@@H](O)C[C@H]2N1C(=O)[C@@H](Cc1ccccc1)NC(=O)[C@H](O)Cc1ccc(O)cc1` [aeruginosin KT608B], the IC50 in experiment [2] is 1.3 µM.

For the molecule `CC[C@H](C)[C@H]1C(=O)N(C)[C@@H](Cc2ccccc2)C(=O)N[C@@H](C(C)C)C(=O)O[C@H](C)[C@H](NC(=O)[C@H](CC(N)=O)NC(=O)[C@H](O)Cc2ccc(O)cc2)C(=O)N[C@@H](CC(C)C)C(=O)N[C@H]2CC[C@@H](OC)N1C2=O` [Micropeptin KB992 (12), Micropeptin KB992], in experiment [1], half-maximal inhibition (IC50) was put at 0.87 µM and the “inhibition of chymotrypsin, in words” value is “inhibition of chymotrypsin”.

With `CCCCCC(=O)N[C@@H](CC(=O)OC)C(=O)N[C@@H]1C(=O)N[C@@H](CCCNC(=N)N)C(=O)N[C@H]2CC[C@@H](OC)N(C2=O)[C@@H](C(C)C)C(=O)N(C)[C@@H](Cc2ccccc2)C(=O)N[C@@H](C(C)C)C(=O)O[C@@H]1C` [Micropeptin KB970C (10), Micropeptin KB970C], in experiment [1], the half-inhibitory concentration (IC50) was over 45.5 µM.

For `CCCC(=O)N[C@@H](CC(=O)O)C(=O)N[C@@H]1C(=O)N[C@@H](CCCNC(=N)N)C(=O)N[C@H]2CC[C@@H](O)N(C2=O)[C@@H](C(C)C)C(=O)N(C)[C@@H](Cc2ccccc2)C(=O)N[C@@H]([C@@H](C)CC)C(=O)O[C@@H]1C` [Micropeptin KB928 (5), Micropeptin KB928], in experiment [1], the half-inhibitory concentration (IC50) was over 45.5 µM.

The molecule `CCCCCC(=O)N[C@@H](CC(=O)OC)C(=O)N[C@@H]1C(=O)N[C@@H](CCCNC(=N)N)C(=O)N[C@H]2CC[C@@H](O)N(C2=O)[C@@H](C(C)C)C(=O)N(C)[C@@H](Cc2ccccc2)C(=O)N[C@@H]([C@@H](C)CC)C(=O)O[C@@H]1C` [Micropeptin KB970A (7), Micropeptin KB970A] gave an IC50 in experiment [1] of over 45.5 µM.

In the case of `CC[C@H](C)[C@@H]1NC(=O)[C@H](NC(=O)N[C@@H](CCCNC(=N)N)C(=O)O)CCCCNC(=O)[C@H]([C@@H](C)CC)NC(=O)[C@H](CCc2ccc(O)cc2)N(C)C(=O)[C@H](CCc2ccccc2)NC1=O` [Anabaenopeptin KB906 (3), Anabaenopeptin KB906] ({Arg-CO}-[dK]I[hPhe][NMehTyr]I; lactam 1-C), the IC50 in experiment [1] is over 45.5 µM.

`CC(C)=CCN(CCCCNC(=O)C1CC2CCC(O)CC2N1C(=O)C(Cc1ccccc1)NC(=O)C(O)Cc1ccc(O)cc1)C(=N)N` (centres unmarked) [Aeruginosin KB676 (1), Aeruginosin KB676]: in experiment [1] (concentration range 45.5 μM to 0.011 μM, read-out: Chymotrypsin (IC50 in μM)), the IC50 is over 45.5 µM. In experiment [3], the “inhibition of trypsin, in words” value is “weak inhibitory activity”.
